What was measured:
[1] = biological target: Melanin-concentrating hormone receptor 1 (Homo sapiens) (UniProt Q99705); assay: Displacement of [125I]-MCH (4 to 19) from human MCH1 receptor expressed in CHO cell membranes at 0.1 uM after 1 hr by liquid scintillation counting analysis relative to control
[2] = biological target: Melanin-concentrating hormone receptor 1 (Homo sapiens) (UniProt Q99705); assay: Antagonist activity at human MCH1 receptor expressed in CHO cell membranes assessed as inhibition of MCH (4 to 19)-stimulated calcium mobilization at 0.1 uM measured every 2 secs by fluorometric analysis relative to control; type: functional, cell-based
hERG (KCNH2) = hERG (KCNH2) (Homo sapiens, UniProt Q12809); assay: Inhibition of human ERG expressed in CHO cells at 10 uM after 5 mins by IonWorks assay relative to control; details: CHO cells expressing human ERG
hERG (KCNH2), sequence (Q12809 whole entry): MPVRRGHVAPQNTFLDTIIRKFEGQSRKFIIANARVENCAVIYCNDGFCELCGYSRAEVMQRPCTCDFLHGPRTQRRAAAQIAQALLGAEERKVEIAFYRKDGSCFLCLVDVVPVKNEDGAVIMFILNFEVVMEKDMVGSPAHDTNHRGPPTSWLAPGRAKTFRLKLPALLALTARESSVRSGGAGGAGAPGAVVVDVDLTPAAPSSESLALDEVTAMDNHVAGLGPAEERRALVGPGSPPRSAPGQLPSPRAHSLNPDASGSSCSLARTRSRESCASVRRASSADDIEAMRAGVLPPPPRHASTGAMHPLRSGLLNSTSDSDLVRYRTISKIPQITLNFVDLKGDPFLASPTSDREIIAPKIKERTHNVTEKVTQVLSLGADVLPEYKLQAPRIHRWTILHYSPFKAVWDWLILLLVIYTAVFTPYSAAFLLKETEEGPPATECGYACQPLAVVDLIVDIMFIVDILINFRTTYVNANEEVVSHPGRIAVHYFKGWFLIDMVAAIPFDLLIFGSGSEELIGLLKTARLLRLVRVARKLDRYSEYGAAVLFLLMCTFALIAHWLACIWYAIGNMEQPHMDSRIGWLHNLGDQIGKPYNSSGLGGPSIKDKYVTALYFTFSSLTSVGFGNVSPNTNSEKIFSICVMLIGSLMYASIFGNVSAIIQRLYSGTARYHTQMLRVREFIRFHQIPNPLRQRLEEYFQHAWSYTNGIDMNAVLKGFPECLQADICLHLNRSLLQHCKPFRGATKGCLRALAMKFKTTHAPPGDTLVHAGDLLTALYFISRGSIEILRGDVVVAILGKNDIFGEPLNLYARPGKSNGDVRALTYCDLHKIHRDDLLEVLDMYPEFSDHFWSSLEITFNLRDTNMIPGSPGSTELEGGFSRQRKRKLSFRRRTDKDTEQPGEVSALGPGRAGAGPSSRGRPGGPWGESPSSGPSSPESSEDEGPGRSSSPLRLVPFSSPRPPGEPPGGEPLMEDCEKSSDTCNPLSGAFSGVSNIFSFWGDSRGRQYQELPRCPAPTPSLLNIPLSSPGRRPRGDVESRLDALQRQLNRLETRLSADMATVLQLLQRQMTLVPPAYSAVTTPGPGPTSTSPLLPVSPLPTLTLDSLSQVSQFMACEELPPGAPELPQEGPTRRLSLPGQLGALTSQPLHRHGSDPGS

Melanin-concentrating hormone receptor 1 (Homo sapiens), sequence (Q99705 whole entry): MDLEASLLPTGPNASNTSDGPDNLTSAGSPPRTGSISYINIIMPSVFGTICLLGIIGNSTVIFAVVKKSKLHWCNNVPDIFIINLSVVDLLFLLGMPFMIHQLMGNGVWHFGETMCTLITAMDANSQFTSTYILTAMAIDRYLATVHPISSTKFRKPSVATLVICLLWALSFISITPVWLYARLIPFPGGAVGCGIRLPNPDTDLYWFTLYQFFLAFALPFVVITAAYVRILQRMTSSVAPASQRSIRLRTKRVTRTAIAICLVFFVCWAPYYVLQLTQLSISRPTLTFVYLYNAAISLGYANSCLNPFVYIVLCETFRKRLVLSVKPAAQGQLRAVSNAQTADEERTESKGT

Row | inhibition [1] [%] | inhibition [2] [%] | SMILES | inhibition at 5 min, 10 µM (hERG (KCNH2)) [%]
1 | 50 | 78 | Cc1c2cc(-n3ccc(OCc4csc(C(F)(F)F)n4)cc3=O)ccc2nn1C1CC1 | –
2 | 72 | 83 | Cc1c2cc(-n3ccc(OCc4ccc(Cl)cc4)cc3=O)ccc2nn1C | 22.1
3 | 72 | 70 | Cc1c2cc(-n3ccc(OCc4ccc(F)cc4)cc3=O)ccc2nn1C1CC1 | –
4 | 77 | 55 | Cc1c2cc(-n3ccc(OCc4csc(C(F)(F)F)c4)cc3=O)ccc2nn1C1CC1 | –

— ChEMBL document CHEMBL3576844, “Melanin-concentrating hormone receptor 1 antagonists for treatment of obesity” (ACS Med Chem Lett, 2015)
